Results: patent US9145411B2, “Substituted amino-pyrimidine derivatives” (Asana Biosciences, LLC, priority 2012, dated 2015)
pIC50: −log10 of the molar value.

How the values were obtained:
[1] = target: T1, PI3Kα (wild-type) (Homo sapiens, UniProt P42336); experiment: PI3 Kinase TR-FRET assay, PI3Kα (wild-type); assay type: biochemical; details: wild-type P110/P85α, 10 μM ATP
T1 construct: made in house; host or cells: SF9 insect cells
Procedure: The ability of compounds of the invention to inhibit PI3K activity was determined in a homogeneous TR-FRET assay using a PI3K assay kit (Millipore, USA; cat #33-016) according to manufacturer's instructions. PI3-Kinases (isoforms α, β, γ and δ) catalyze the phosphorylation of phosphatidylinositol, PIP2 to PIP3 in the presence of ATP and Mg^2+. The PIP3 product is detected by displacement of biotin-PIP3 from an energy transfer complex consisting of Europium labeled anti-GST monoclonal antibody, a GST-tagged PH domain, biotinylated PIP3 and Streptavidin-APC. Excitation of Europium in the complex results in an energy transfer to the APC and a fluorescence emission at 665 nm. The PIP3 product displaces biotin-PIP3 from the complex resulting in a loss of energy transfer and thus a decrease in signal.
To test for the ability of compounds to inhibit the activity of PI3Kα (wild-type), exemplary compounds of formula (I) were dissolved in DMSO and directly distributed into 384-well plates at a volume of 0.5 μL. 14.5 μL of P110/P85α/PIP2 mixture in buffer (obtained from the Millipore kit) containing MgCl2 (40 mM) and DTT (5 mM) was added to compound wells and incubated for 60 minutes at room temperature. P110/P85α was expressed in SF9 insect cells and purified nickel column extraction. Five ng of wild-type P110/P85α was used in the assay. The kinase reaction was started by the addition of ATP. The assay concentrations of both PIP2 and ATP were 10 μM. The reaction mixture was incubated for 30 minutes at room temperature and was terminated by the addition of stop mix and detection mix. Fluorescence was measured at 615 and 665 nm upon excitation at 340 nm in a Victor™ V5 fluorometer (Perkin Elmer, USA). The fluorescence emission ratio at 665 to 615 nm, proportional to the kinase activity, was plotted against the compound concentration to generate dose-response curves and IC50 values were determined using GraphPad Prism® 5 software.

[2] = target: T2, mTOR kinase (Homo sapiens, UniProt P42345); experiment: mTOR kinase TR-FRET assay; assay type: biochemical; details: 20 μM ATP
T2 construct: purchased Millipore, USA
Procedure: Compound inhibition for mTOR kinase was determined in a homogeneous TR-FRET assay using the Lance® ULight-p70 S6K (Thr 389) peptide (obtained from Perkin-Elmer). The ULight™-labeled synthetic peptide contains the amino acid residues surrounding Thr389 of human p70 S6K. The ULight-p70 S6K peptide is phosphorylated at Thr389 by mTOR. Phosphorylation motif: LGFTYVAP as substrate.
The compound dilution was carried out in 100% DMSO followed by a buffer dilution. The reaction buffer was HEPES (50 mM pH 7.5), EGTA (1 mM), MnCl2 (3 mM). Test compounds at various concentrations were pre-incubated with mTOR (Millipore, USA; 5 ng) for 60 min, and then the Lance® ULight-p70 S6K (Thr 389) peptide (50 nM) was added along with ATP (20 μM). After incubating the reaction mixture for 60 minutes at room temperature, the kinase reaction was terminated by the addition of EDTA (10 mM) followed by the addition of detection mix, i.e., 1 nM Eu-labeled anti-phospho-substrate antibody (Perkin Elmer, USA). The fluorescence emission at […] was measured upon excitation at 340 nm. IC50 values were subsequently determined using a sigmoidal dose-response curve (variable slope) in GraphPad Prism® 5 software.
Compounds of formula (I) caused inhibition of mTOR kinase activity as determined by this assay.

[3] = system: PC3 cells; experiment: XTT assay for cell viability, PC3 cells; assay type: cell-based; details: Homo sapiens, PC-3; PC3 cell proliferation, 96 hours
Procedure: Using a commercial kit from Sigma Aldrich (Catalog #X34251) and following its protocol, PC3 cells in the log phase of growth were employed and seeded at an optimal density of 1000 cell/well on to 96 well plates and incubated for 24 hours followed by the addition of compounds of formula (I) in serial dilutions. Compound dilutions were made in DMSO. The cells were incubated with the compounds of formula (I) for 96 hours and XTT tetrazolium dye (Sigma, USA) was subsequently added and incubated at 37° C. After the color formation, absorbance was measured at 465 nm in a Spectramax® Gemini spectrophotometer. EC50 values were calculated using a sigmoidal dose response curve fit in GraphPad Prism® v5 software. The tested compounds of formula (I) which caused inhibition of PC3 cell proliferation as determined by this assay protocol are shown in Table 2.

T2 sequence (P42345 1362-2549 limits assumed): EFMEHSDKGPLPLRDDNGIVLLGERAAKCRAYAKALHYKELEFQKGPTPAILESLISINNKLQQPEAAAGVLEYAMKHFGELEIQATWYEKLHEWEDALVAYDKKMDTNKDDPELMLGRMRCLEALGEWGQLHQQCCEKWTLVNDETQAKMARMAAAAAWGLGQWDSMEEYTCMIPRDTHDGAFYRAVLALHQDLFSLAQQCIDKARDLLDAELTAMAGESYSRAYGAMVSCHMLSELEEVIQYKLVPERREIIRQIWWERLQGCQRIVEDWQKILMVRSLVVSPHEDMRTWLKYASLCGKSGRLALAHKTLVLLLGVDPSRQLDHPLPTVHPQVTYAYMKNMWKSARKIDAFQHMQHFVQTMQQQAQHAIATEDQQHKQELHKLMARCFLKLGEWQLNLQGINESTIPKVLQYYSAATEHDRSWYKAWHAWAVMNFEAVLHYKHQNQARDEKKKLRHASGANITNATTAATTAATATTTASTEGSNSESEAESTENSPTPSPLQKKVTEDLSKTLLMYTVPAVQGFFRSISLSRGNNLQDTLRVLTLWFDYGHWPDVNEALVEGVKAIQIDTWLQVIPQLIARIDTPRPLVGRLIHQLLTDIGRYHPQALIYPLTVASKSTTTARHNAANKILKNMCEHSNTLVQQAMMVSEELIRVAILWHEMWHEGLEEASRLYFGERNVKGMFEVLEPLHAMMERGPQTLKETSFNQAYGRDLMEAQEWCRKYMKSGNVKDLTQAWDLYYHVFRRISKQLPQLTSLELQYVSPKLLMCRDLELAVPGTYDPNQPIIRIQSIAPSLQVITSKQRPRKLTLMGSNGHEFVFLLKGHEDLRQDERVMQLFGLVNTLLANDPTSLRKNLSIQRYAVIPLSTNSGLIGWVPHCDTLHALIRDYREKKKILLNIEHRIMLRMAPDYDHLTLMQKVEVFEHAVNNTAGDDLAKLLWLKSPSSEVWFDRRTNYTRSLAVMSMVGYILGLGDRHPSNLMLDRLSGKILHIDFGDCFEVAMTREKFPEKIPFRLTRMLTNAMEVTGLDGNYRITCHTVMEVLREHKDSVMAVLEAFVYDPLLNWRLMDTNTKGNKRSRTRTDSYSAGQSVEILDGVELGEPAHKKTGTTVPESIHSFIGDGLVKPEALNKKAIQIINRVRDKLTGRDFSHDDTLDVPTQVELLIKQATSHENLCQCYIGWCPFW
T1 sequence (P42336 whole entry, species assumed): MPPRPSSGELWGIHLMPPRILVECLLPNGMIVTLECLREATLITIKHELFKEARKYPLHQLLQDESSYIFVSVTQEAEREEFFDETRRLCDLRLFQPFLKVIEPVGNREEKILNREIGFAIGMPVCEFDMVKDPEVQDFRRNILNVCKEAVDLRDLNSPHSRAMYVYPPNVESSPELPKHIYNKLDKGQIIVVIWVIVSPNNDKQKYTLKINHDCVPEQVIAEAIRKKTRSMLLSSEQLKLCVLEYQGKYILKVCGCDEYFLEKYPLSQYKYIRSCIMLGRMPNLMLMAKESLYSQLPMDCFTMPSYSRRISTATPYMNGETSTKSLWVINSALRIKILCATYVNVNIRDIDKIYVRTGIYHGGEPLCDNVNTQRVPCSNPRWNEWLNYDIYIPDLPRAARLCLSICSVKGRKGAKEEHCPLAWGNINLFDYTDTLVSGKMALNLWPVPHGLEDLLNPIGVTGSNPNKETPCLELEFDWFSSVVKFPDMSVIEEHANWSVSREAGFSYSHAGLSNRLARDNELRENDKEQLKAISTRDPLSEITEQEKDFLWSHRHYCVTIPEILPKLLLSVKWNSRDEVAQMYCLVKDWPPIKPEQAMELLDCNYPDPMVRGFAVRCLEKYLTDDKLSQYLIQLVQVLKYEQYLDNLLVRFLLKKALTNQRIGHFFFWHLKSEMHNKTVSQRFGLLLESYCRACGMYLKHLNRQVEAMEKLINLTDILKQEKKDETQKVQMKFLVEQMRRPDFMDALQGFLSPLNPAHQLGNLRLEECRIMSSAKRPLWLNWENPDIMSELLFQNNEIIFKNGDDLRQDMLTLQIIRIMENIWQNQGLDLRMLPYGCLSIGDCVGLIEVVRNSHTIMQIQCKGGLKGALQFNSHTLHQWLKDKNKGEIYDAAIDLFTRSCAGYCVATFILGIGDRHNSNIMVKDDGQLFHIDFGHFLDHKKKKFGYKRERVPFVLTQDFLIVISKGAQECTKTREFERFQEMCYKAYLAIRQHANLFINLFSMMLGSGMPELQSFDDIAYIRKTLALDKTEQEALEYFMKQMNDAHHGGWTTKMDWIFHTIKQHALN
T1 sequence (P27986 whole entry partner, species assumed): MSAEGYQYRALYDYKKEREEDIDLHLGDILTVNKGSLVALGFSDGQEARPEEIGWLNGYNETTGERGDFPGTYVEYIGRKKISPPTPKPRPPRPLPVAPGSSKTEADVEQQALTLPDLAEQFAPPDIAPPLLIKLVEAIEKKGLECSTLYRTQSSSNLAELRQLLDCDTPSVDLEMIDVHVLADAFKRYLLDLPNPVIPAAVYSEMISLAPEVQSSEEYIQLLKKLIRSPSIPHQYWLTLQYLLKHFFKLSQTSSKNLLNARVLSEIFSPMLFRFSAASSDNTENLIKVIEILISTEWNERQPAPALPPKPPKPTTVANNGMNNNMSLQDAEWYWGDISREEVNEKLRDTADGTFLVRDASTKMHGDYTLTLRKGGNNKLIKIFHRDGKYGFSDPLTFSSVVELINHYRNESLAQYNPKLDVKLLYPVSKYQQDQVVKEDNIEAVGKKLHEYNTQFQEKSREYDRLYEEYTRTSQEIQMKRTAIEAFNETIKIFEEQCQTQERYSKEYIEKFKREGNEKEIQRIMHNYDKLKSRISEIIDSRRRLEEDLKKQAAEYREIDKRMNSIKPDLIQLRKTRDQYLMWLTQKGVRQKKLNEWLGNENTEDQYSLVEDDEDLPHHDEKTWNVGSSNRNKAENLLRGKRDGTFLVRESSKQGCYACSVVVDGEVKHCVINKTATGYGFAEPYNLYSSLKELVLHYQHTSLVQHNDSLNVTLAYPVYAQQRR

Structure (SMILES)	pIC50 [1]	pIC50 [2]	pIC50 [3]
CN1CCN(c2cccc(-c3cnc4c(N5CCOCC5)nc(-c5cnc(N)nc5)nc4c3)c2)CC1 [Example 101, 5-(7-(3-(4-methyl-piperazin-1-yl)phenyl)-4-morpholinopyrido[3,2-d]-pyrimidin-2-yl)pyrimidin-2-amine]	> 7.30	6.70 to 7.30	6.30 to 7.00
Nc1ncc(-c2nc(N3CCOCC3)c3ncc(-c4ccco4)cc3n2)cn1 [Example 25, 5-(7-(furan-2-yl)-4-morpholinopyrido[3,2-d]-pyrimidin-2-yl)pyrimidin-2-amine]	> 7.30	> 7.30	6.30 to 7.00
Nc1ncc(-c2nc(N3CCOCC3)c3ncc(-c4ccc(C(=O)NC5CC5)cc4)cc3n2)cn1 [Example 4, 4-(2-(2-Aminopyrimidin-5-yl)-4-morpholinopyrido[3,2-d]pyrimidin-7-yl)-N-cyclopropylbenzamide]	> 7.30	> 7.30	> 7.00
Nc1ncc(-c2nc(N3CCOCC3)c3ncc(-c4cccc(NC(=O)C5CC5)c4F)cc3n2)cn1 [Example 115, N-(3-(2-(2-amino-pyrimidin-5-yl)-4-morpholinopyrido[3,2-d]pyrimidin-7-yl)-2-fluorophenyl)-cyclopropane-carboxamide]	> 7.30	> 7.30	6.30 to 7.00
Nc1ncc(-c2nc(N3CCOCC3)c3ncc(-c4cccc(C(=O)N5CCN(CCO)CC5)c4)cc3n2)cn1 [Example 116, (3-(2-(2-aminopyrimidin-5-yl)-4-morpholinopyrido[3,2-d]-pyrimidin-7-yl)phenyl)(4-(2-hydroxyethyl)piperazin-1-yl)methanone]	> 7.30	5.00 to 6.70	5.30 to 6.30
CS(=O)(=O)Nc1cccc(-c2ccc3c(N4CCOCC4)nc(-c4cnc(N)nc4)nc3c2)c1 [Example 16, N-(3-(2-(2-amino-pyrimidin-5-yl)-4-morpholinoquinazolin-7-yl)phenyl)methane-sulfonamide]	6.70 to 7.30	> 7.30	5.30 to 6.30
CC(=O)Nc1cc(-c2cnc3c(N4CCOCC4)nc(-c4cnc(N)nc4)nc3c2)ccc1N1CCN(C)CC1 [Example 114, N-(5-(2-(2-amino-pyrimidin-5-yl)-4-morpholinopyrido[3,2-d]pyrimidin-7-yl)-2-(4-methylpiperazin-1-yl)-phenyl)acetamide]	> 7.30	> 7.30	6.30 to 7.00
CN1CCN(c2ccc(-c3cnc4c(N5CCOCC5)nc(-c5cnc(N)nc5)nc4c3)cc2NC(=O)C2CC2)CC1 [Example 117, N-(5-(2-(2-amino-pyrimidin-5-yl)-4-morpholinopyrido[3,2-d]pyrimidin-7-yl)-2-(4-methylpiperazin-1-yl)-phenyl)cyclopropane-carboxamide]	> 7.30	> 7.30	6.30 to 7.00
Nc1ncc(-c2nc(N3CCOCC3)c3ncc(-c4cccc(N5CCNCC5)c4)cc3n2)cn1 [Example 106, 5-(4-morpholino-7-(3-(piperazin-1-yl)-phenyl)pyrido[3,2-d]-pyrimidin-2-yl)pyrimidin-2-amine]	> 7.30	6.70 to 7.30	5.30 to 6.30
CC(=O)N1CCN(C(=O)c2cccc(-c3cnc4c(N5CCOCC5)nc(-c5cnc(N)nc5)nc4c3)c2)CC1 [Example 35, 1-(4-(3-(2-(2-amino-pyrimidin-5-yl)-4-morpholinopyrido[3,2-d]-pyrimidin-7-yl)benzoyl)-piperazin-1-yl)ethanone]	> 7.30	6.70 to 7.30	5.30 to 6.30
Cn1cc(-c2ccc3c(N4CCOCC4)nc(-c4cnc(N)nc4)nc3c2)cn1 [Example 14, 5-(7-(1-methyl-1H-pyrazol-4-yl)-4-morpholinoquinazolin-2-yl)pyrimidin-2-amine]	5.00 to 6.70	5.00 to 6.70	5.30 to 6.30
Nc1ncc(-c2nc(N3CCOCC3)c3ncc(-c4cccc(N5CCN(CCO)CC5)c4)cc3n2)cn1 [Example 113, 2-(4-(3-(2-(2-amino-pyrimidin-5-yl)-4-morpholinopyrido[3,2-d]pyrimidin-7-yl)-phenyl)piperazin-1-yl)-ethanol]	> 7.30	> 7.30	5.30 to 6.30
Nc1ncc(-c2nc(N3CCOCC3)c3ncc(-c4ccc(NC(=O)c5cccnc5)cc4)cc3n2)cn1 [Example 77, N-(4-(2-(2-amino-pyrimidin-5-yl)-4-morpholinopyrido[3,2-d]pyrimidin-7-yl)-phenyl)nicotinamide]	> 7.30	> 7.30	6.30 to 7.00

Second part, the compound after the results:

pIC50 [1]	pIC50 [2]	pIC50 [3]	Structure (SMILES)
> 7.30	6.70 to 7.30	5.30 to 6.30	CNC(=O)Nc1cccc(-c2cnc3c(N4CCOCC4)nc(-c4cnc(N)nc4)nc3c2)c1 [Example 28, 1-(3-(2-(2-amino-pyrimidin-5-yl)-4-morpholinopyrido[3,2-d]pyrimidin-7-yl)phenyl)-3-methylurea]
> 7.30	> 7.30	5.30 to 6.30	Nc1ncc(-c2nc(N3CCOCC3)c3ncc(-c4cccc(NC(=O)N5CCOCC5)c4)cc3n2)cn1 [Example 10, N-(3-(2-(2-aminopyrimidin-5-yl)-4-morpholinopyrido[3,2-d]pyrimidin-7-yl)-phenyl)morpholine-4-carboxamide]
> 7.30	6.70 to 7.30	6.30 to 7.00	CN1CCN(CC(=O)Nc2cccc(-c3cnc4c(N5CCOCC5)nc(-c5cnc(N)nc5)nc4c3)c2)CC1 [Example 83, N-(3-(2-(2-aminopyrimidin-5-yl)-4-morpholinopyrido[3,2-d]pyrimidin-7-yl)phenyl)-2-(4-methylpiperazin-1-yl)acetamide]
> 7.30	6.70 to 7.30	6.30 to 7.00	CC(=O)Nc1ccc(F)c(-c2cnc3c(N4CCOCC4)nc(-c4cnc(N)nc4)nc3c2)c1 [Example 55, N-(3-(2-(2-amino-pyrimidin-5-yl)-4-morpholinopyrido[3,2-d]pyrimidin-7-yl)-4-fluorophenyl)acetamide]
> 7.30	> 7.30	6.30 to 7.00	Nc1ncc(-c2nc(N3CCOCC3)c3ncc(-c4cccc(C(=O)NC5CC5)c4)cc3n2)cn1 [Example 98, 3-(2-(2-aminopyrimidin-5-yl)-4-morpholinopyrido[3,2-d]-pyrimidin-7-yl)-N-cyclopropylbenzamide]
> 7.30	6.70 to 7.30	6.30 to 7.00	CN(C)CCNC(=O)c1cccc(-c2cnc3c(N4CCOCC4)nc(-c4cnc(N)nc4)nc3c2)c1 [Example 102, 3-(2-(2-aminopyrimidin-5-yl)-4-morpholinopyrido[3,2-d]-pyrimidin-7-yl)-N-(2-(dimethylamino)ethyl)-benzamide]
> 7.30	> 7.30	6.30 to 7.00	Nc1ncc(-c2nc(N3CCOCC3)c3ncc(-c4cccc(NC(=O)c5cncc(F)c5)c4)cc3n2)cn1 [Example 99, N-(3-(2-(2-amino-pyrimidin-5-yl)-4-morpholinopyrido[3,2-d]-pyrimidin-7-yl)phenyl)-5-fluoronicotinamide]
> 7.30	> 7.30	5.30 to 6.30	CN1CCN(C(=O)Nc2cccc(-c3cnc4c(N5CCOCC5)nc(-c5cnc(N)nc5)nc4c3)c2)CC1 [Example 89, N-(3-(2-(2-aminopyrimidin-5-yl)-4-morpholinopyrido[3,2-d]pyrimidin-7-yl)phenyl)-4-methylpiperazine-1-carboxamide]
